The source of these data is patent US20150119373A1, “NOVEL BETULINIC ACID DERIVATIVES AS HIV INHIBITORS” (HETERO RESEARCH FOUNDATION, priority 2012, published 2015).

As a reminder, the viability is the share of living cells, or the viability signal relative to a control. Higher therefore signals less harm to the cells. As usually defined, the AUC(0-inf) is the area under the concentration-time curve extrapolated to infinity. A high value points to more exposure. A word on the Cmax: it is the maximum level reached in the sampled fluid or tissue. As usually defined, the inhibition is the relative decrease from the control value, in per cent. The term Tmax denotes the time from dosing to the highest level.

Series [1] is described as follows: Cyto-toxicity assay (MTT) in MT2 cells without virus. Type of series: cell-based. As to conditions: human. How it is done: For cyto-toxicity assay the same amount of MT2 cells as in antiviral assay without virus was added to the 96 well plates. The cyto-toxicity was measured using MTT reagent in parallel with p24 estimation. The percent viability is calculated in comparison with vehicle control.

A short description of series [2]: Single dose oral pharmacokinetic study in mice. As to conditions: for half-life: read-out: t½ (converted). Type of series: in vivo. In short, it runs like this: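 Mice or rats dosed orally at 30 mg/kg in a suitable vehicle (10 ml/kg). Retro-orbital blood on K3 EDTA at defined time points under light ether anaesthesia; plasma analysed by LC-MS-MS.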
For the next series, the system named is HIV-1 strain 92HT599. The series can be described thus: Antiviral activity: p24 estimation in MT2 cells infected with HIV-1 strain 92HT599. Type of series: cell-based. As to conditions: Human immunodeficiency virus 1, MT2 cells, HIV-1 92HT599, ~96 hours, p24; for inhibition at 0.1 µM: 100 nM, read-out: Antiviral activity % inhibition 100 nM; for inhibition at 1 µM: 1000 nM, read-out: Antiviral activity % inhibition 1000 nM. In short, it runs like this:
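Infection of MT2 cells used 10 TCID50/30000 cells, with compound present at ≤1% DMSO for ~96 h. p24 in well aliquots was quantified by kit. Percent inhibition is relative to vehicle controls.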

Series [3] can be described thus: Single dose oral pharmacokinetic study in rat. Type of series: in vivo. As to conditions: plasma, Rat oral PK @30 mg/kg (Table 3); for half-life: read-out: t½ (converted). The protocol:
The test item was administered through oral route to animals (rat/mice) at 30 mg/kg dose in a suitable vehicle at 10 ml/kg dose volume. Blood samples (˜50 uL at each time point) were collected from retro-orbital plexus using K3 EDTA as anticoagulant in eppendorf tubes at defined time intervals under light ether anesthesia. The samples were centrifuged at 3500×g to separate plasma and stored at −80° C. until analysis.
Sample analysis: Test samples were analyzed using LC-MS-MS after developing fit-for-purpose method for each of test compound.

[4] abbreviates: mouse, plasma, Mice oral PK @30 mg/kg (Table 4).
[5] abbreviates: mouse, plasma, Mice oral PK @30 mg/kg (Table 4), read-out: AUC 0-t.
Where [6] appears, read: mouse, plasma, Oral PK @ 30 mg/ kg dose in mice (Table 6).

Turning to `C=C(C)[C@@H]1CC[C@]2(C(=O)O)CC[C@]3(C)[C@H](CC[C@@H]4[C@@]5(C)CC[C@H](OC(=O)[C@H]6[C@@H](CC(=O)O)C6(C)C)C(C)(C)[C@@H]5CC[C@]43C)[C@@H]12` [Compound 1, (1R,3aS,5aR,5bR,7aR,9S,11aR,11bR,13aR,13bR)-9-((1S,3R)-3-(carboxymethyl)-2,2-dimethylcyclopropanecarbonyloxy)-5a,5b,8,8,11a-pentamethyl-1-(prop-1-en-2-yl)icosahydro-1H-cyclopenta[a]chrysene-3a-carboxylic acid], in series [1], the viability at 100 nM came out at 96% and the viability at 1000 nM was 92%. In addition, in series [2] (setting [4]), the AUC(0-inf) was determined as 36700 ng·h/mL, the highest level (Cmax) was 8790 ng/mL and the half-life was 6.23 h. In addition, the AUC(0-t) in series [2] (setting [5]) was 35900 ng·h/mL. For the same compound, in the series with HIV-1 strain 92HT599, the inhibition at 0.1 µM was 95% and the inhibition at 1 µM was 100%. For the same compound, in series [3], the AUC(0-inf) is 3230 ng·h/mL, the AUC(0-t) came to 3120 ng·h/mL, the peak level (Cmax) was 1220 ng/mL and the half-life was 1.53 h.

For the compound `CC(C)(CC(=O)O[C@H]1CC[C@]2(C)[C@H]3CC[C@@H]4[C@H]5[C@H](C6(C)CC6)CC[C@]5(C(=O)N[C@@H]5C[C@H](C(=O)N6CCCCC6)C5(C)C)CC[C@@]4(C)[C@]3(C)CC[C@H]2C1(C)C)C(=O)O` [Example 4, 4-((1R,3aS,5aR,5bR,7aR,9S,11aR,11bR,13aR,13bR)-3a-((1R,3S)-2,2-dimethyl-3-(piperidine-1-carbonyl)cyclobutylcarbamoyl)-5a,5b,8,8,11a-pentamethyl-1-(1-methylcyclopropyl)icosahydro-1H-cyclopenta[a]chrysen-9-yloxy)-2,2-dimethyl-4-oxobutanoicacid], in series [1], the viability at 100 nM was 82% and the viability at 1000 nM was found to be 86%. Moreover, in series [2] (setting [4]), the AUC(0-inf) came to 155000 ng·h/mL, the Cmax worked out at 9780 ng/mL and the half-life was 14.5 h. In series [2] (setting [5]), the AUC(0-t) came to 138000 ng·h/mL. Moreover, in the series on HIV-1 strain 92HT599, the inhibition at 0.1 µM was 98% and the inhibition at 1 µM was 98%. Also, in series [3], the AUC(0-inf) turned out to be 22600 ng·h/mL, the AUC(0-t) amounted to 22300 ng·h/mL, the Cmax amounted to 5920 ng/mL and the half-life is 4.44 h.

In series [1], `C=C(C)[C@@H]1CC[C@]2(C(=O)N[C@@H]3C[C@H](c4nnc(C)o4)C3(C)C)CC[C@]3(C)[C@H](CC[C@@H]4[C@@]5(C)CC[C@H](OC(=O)CC(C)(C)C(=O)O)C(C)(C)[C@@H]5CC[C@]43C)[C@@H]12` [Example 11, 4-((1R,3aS,5aR,5bR,7aR,9S,11aR,11bR,13aR,13bR)-3a-((1R,3S)-2,2-dimethyl-3-(5-methyl-1,3,4-oxadiazol-2-yl)cyclobutylcarbamoyl)-5a,5b,8,8,11a-pentamethyl-1-(prop-1-en-2-yl)icosahydro-1H-cyclopenta[a]chrysen-9-yloxy)-2,2-dimethyl-4-oxo butanoicacid] returned a viability at 100 nM of 96% and a viability at 1000 nM of 98%. Moreover, in series [2] (setting [4]), the AUC(0-inf) came out at 138000 ng·h/mL, the peak level (Cmax) was 11300 ng/mL and the half-life is 3.66 h. The AUC(0-t) in series [2] (setting [5]) was determined as 115000 ng·h/mL. In the series with HIV-1 strain 92HT599, the inhibition at 0.1 µM was 100% and the inhibition at 1 µM was 100%. In addition, in series [3], the AUC(0-inf) is 8160 ng·h/mL, the AUC(0-t) was determined as 8050 ng·h/mL, the Cmax came out at 1970 ng/mL and the half-life was 3.66 h.

In series [1], `[2H]C([2H])([2H])C(CC(=O)O[C@H]1CC[C@]2(C)[C@H]3CC[C@@H]4[C@H]5[C@H](C(=C)C)CC[C@]5(C(=O)N5CCN(CC)CC5)CC[C@@]4(C)[C@]3(C)CC[C@H]2C1(C)C)(C(=O)O)C([2H])([2H])[2H]` [Example 25, 4-(((1R,3aS,5aR,5bR,7aR,9S,11aR,11bR,13aR,13bR)-3a-(4-ethylpiperazine-1-carbonyl)-5a,5b,8,8,11a-pentamethyl-1-(prop-1-en-2-yl)icosahydro-1H-cyclopenta[a]chrysen-9-yl)oxy)-2,2-bis(methyl-d3)-4-oxobutanoic acid] registered a viability at 100 nM of 100% and a viability at 1000 nM of 84%. The Tlast in series [2] (Oral PK @ 30 mg/ kg dose in mice (Table 6)) was 48 h. Besides, in series [2] (setting [6]), the total exposure AUC(0-inf) came out at 122000 ng·h/mL, the Cmax was 6200 ng/mL and the time to peak (Tmax) was 4.5 h. Besides, the AUC(0-t) in series [2] (mouse, plasma, Oral PK @ 30 mg/ kg dose in mice (Table 6), read-out: AUCt) worked out at 108000 ng·h/mL. For the same compound, in the series on HIV-1 strain 92HT599, the inhibition at 0.1 µM was 100% and the inhibition at 1 µM was 100%.
